Experimental data reported in PMC7248923, “A New Oleanane Type Saponin from the Aerial Parts of Nigella sativa with Anti-Oxidant and Anti-Diabetic Potential” (Molecules, 2020).

Assays:
[1] = ABTS radical scavenging assay; conditions: mean of three determinations ± SD; Nd = not detected; 732 nm
Experimental: ABTS inhibition of the isolated compounds and extracts were evaluated as described previously. Stock solution was prepared by mixing an equal volume of 7.4 mM of ABTS and 2.6 mM of potassium persulfate and kept for 24 hours before diluting with methanol. Later the solution was diluted with methanol till the absorbance at 732 nm came within the range of 0.8–1.2. To 50 µL of sample solutions of different concentration (250, 125, 100, 50 μM ) 950 μL of ABTS* was added. Absorbance was measured at 732 nm by a spectrophotometer. Ascorbic acid and Trolox, and methanol were used as a positive and negative controls, respectively. All observations were done in triplicate. Percentage inhibition was calculated from the observations. Data were presented as mean ± S.D.

[2] = DPPH radical scavenging assay; conditions: mean of three determinations ± SD; Nd = not detected; 30 min at 37 °C, 517 nm
Experimental: The DPPH activity of the isolated compounds and extracts were evaluated as described previously. Twenty μ L of samples having different concentrations of the extract (100, 500, 250, and 125 µg/mL) and isolated compounds (100, 75, 50, and 25 μ M) keeping the total volume of solution at 180 μL (0.1 mM) solution, was added in 96 well plates and incubated for 30 min at 37 °C. The observation was measured at 517nm. Each observation was done in triplicate. Ascorbic acid and Trolox were used as positive controls, while methanol was used as a negative control. Inhibition % was calculated. Data were presented as the mean ± S.D.

human recombinant PTP1B = target: T1, human recombinant PTP1B (Homo sapiens, UniProt P18031); assay: PTP1B inhibitory assay (pNPP substrate); type: biochemical; conditions: mean of three determinations ± SD, Nd = not detected, pH 6, 37 °C
T1 construct: purchased Sigma-Aldrich
T1 sequence (P18031 1-435): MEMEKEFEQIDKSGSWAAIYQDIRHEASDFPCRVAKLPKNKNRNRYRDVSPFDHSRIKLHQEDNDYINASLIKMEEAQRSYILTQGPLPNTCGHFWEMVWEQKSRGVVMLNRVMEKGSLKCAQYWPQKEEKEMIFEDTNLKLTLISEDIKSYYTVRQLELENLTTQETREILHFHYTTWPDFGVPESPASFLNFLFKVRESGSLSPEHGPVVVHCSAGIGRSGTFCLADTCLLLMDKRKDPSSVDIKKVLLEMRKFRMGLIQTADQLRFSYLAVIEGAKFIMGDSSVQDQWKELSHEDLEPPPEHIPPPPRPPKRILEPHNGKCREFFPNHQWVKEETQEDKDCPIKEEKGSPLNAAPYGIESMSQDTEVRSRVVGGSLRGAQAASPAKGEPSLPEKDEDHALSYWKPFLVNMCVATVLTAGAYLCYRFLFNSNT
Experimental: The inhibitory activity of the isolated compounds against human recombinant PTP1B was evaluated using p-nitrophenyl phosphate (pNPP) as a substrate. Firstly, 2 mM pNPP and PTP1B were mixed with 50 mM citrate buffer of pH 6 and 0.1 mM NaCl, 1 mM EDTA, and 1 mM DTT with or without sample keeping the final volume of the solution at 110 μL and placing them in a 96 wells plate. […] The plate was first pre-incubated for 10 min at 37 °C, and then 50 μL of pNPP in buffer was added. The plate was again incubated for 30 min at 37 °C. After that, 10 μL of 10M NaOH was added dropwise to stop the reaction. […] The inhibition percentage was calculated with the formula [( Ac−As/Ac )] × 100%, where Ac is the absorbance of control while As is the absorbance of the sample. […] Data were presented as mean ± S.D [35].

| IC50 [1] [µM] | IC50 [2] [µM] | IC50 (human recombinant PTP1B) [µM] | Structure (SMILES) |
| --- | --- | --- | --- |
| 82.9 ± 2 | 51.7 ± 0.1 | – | O=C1O[C@H]([C@@H](O)CO)C(O)=C1O [Ascorbic acid, reference compound] |
| 139.2 ± 0.5 | 71 ± 0.5 | – | COc1ccc2c(c1O)-c1c(O)c(OC)cc3c1[C@H](C2)[N+](C)(C)CC3 [Compound 5, magnoflorine] |
| – | – | 91.3 ± 2.5 | CC1OC(OC2C(OC3CCC4(C)C(CCC5(C)C4CC=C4C6CC(C)(C)CCC6(C(=O)O)CCC45C)C3(C)CO)OCC(O)C2O)C(O)C(O)C1O [Compound 12, 3-O-[α-L-rhamnopyranosyl-(1→2)-α-L-arabinopyranpsyl]hederagenin] |
| 129 ± 0.5 | 39.6 ± 0.5 | – | C[C@@H]1O[C@@H](OC[C@H]2O[C@@H](Oc3c(-c4ccc(O)c(O)c4)oc4cc(O)cc(O)c4c3=O)[C@H](O)[C@@H](O)[C@@H]2O)[C@H](O)[C@H](O)[C@H]1O [Compound 11, rutin] |
| 98.8 ± 0.5 | 35.5 ± 0.5 | – | O=c1c(OC2OC(CO)C(O)C(O)C2OC2OC(CO)C(O)C(O)C2OC2OC(CO)C(O)C(O)C2O)c(-c2ccc(O)c(O)c2)oc2cc(O)cc(O)c12 (stereo not shown) [Compound 8, quercetin sphorotrioside] |
| 96.2 ± 1.5 | 59.4 ± 0.9 | – | Cc1c(C)c2c(c(C)c1O)CCC(C)(C(=O)O)O2 (stereo not shown) [Trolox, reference compound] |
| 247 ± 2.7 | 198 ± 2.7 | – | O=c1c(OC2OC(CO)C(O)C(O)C2O)c(-c2ccc(O)cc2)oc2cc(OC3OC(CO)C(O)C(O)C3O)cc(O)c12 (stereo not shown) [Compound 9, kaempferol-3,7-diglucoside] |
